Data from the NIST ThermoML archive (doi:10.1021/acs.jced.6b00536).
± gives the expanded uncertainty stated by the source.

Assay: xn = mol fraction of the nth substance listed
Details: Gas, Frequency=0.05 MHz, Single path-length method, x2 = 0.056

SMILES: FC(F)(F)C(F)(F)C(F)(F)F [octafluoropropane] + FC(F)(F)C(F)(F)F
- speed of sound (252.6 K, 87.5 kPa): 107.26 ± 0.1 m/s
- speed of sound (252.6 K, 102.5 kPa): 106.66 ± 0.1 m/s
- speed of sound (252.6 K, 119.8 kPa): 106.02 ± 0.1 m/s
- speed of sound (252.6 K, 143.2 kPa): 105.14 ± 0.1 m/s
- speed of sound (252.6 K, 173.7 kPa): 103.91 ± 0.1 m/s
- speed of sound (252.6 K, 201.7 kPa): 102.77 ± 0.1 m/s
- speed of sound (257.7 K, 88.9 kPa): 108.41 ± 0.1 m/s
- speed of sound (257.7 K, 104.4 kPa): 107.85 ± 0.1 m/s
- speed of sound (257.7 K, 122.1 kPa): 107.22 ± 0.1 m/s
- speed of sound (257.7 K, 146.2 kPa): 106.37 ± 0.1 m/s
- speed of sound (257.7 K, 177.3 kPa): 105.18 ± 0.1 m/s
- speed of sound (257.7 K, 206.4 kPa): 104.1 ± 0.1 m/s
- speed of sound (257.7 K, 234.4 kPa): 102.97 ± 0.1 m/s
- speed of sound (262.8 K, 90.4 kPa): 109.57 ± 0.1 m/s
- speed of sound (262.8 K, 106.6 kPa): 109.02 ± 0.1 m/s
- speed of sound (262.8 K, 124.5 kPa): 108.41 ± 0.1 m/s
- speed of sound (262.8 K, 148.9 kPa): 107.58 ± 0.1 m/s
- speed of sound (262.8 K, 180.9 kPa): 106.46 ± 0.1 m/s
- speed of sound (262.8 K, 210.8 kPa): 105.41 ± 0.1 m/s
- speed of sound (262.8 K, 239.7 kPa): 104.33 ± 0.1 m/s
- speed of sound (262.8 K, 276.7 kPa): 102.88 ± 0.1 m/s
- speed of sound (267.9 K, 91.9 kPa): 110.71 ± 0.1 m/s
- speed of sound (267.9 K, 108.6 kPa): 110.16 ± 0.1 m/s
- speed of sound (267.9 K, 126.8 kPa): 109.58 ± 0.1 m/s
- speed of sound (267.9 K, 151.8 kPa): 108.79 ± 0.1 m/s
- speed of sound (267.9 K, 184.5 kPa): 107.7 ± 0.1 m/s
- speed of sound (267.9 K, 215.2 kPa): 106.69 ± 0.1 m/s
- speed of sound (267.9 K, 245.1 kPa): 105.66 ± 0.1 m/s
- speed of sound (267.9 K, 283.1 kPa): 104.27 ± 0.1 m/s
- speed of sound (273.1 K, 93.6 kPa): 111.83 ± 0.1 m/s
- speed of sound (273.1 K, 110.7 kPa): 111.31 ± 0.1 m/s
- speed of sound (273.1 K, 129.5 kPa): 110.76 ± 0.1 m/s
- speed of sound (273.1 K, 154.8 kPa): 109.99 ± 0.1 m/s
- speed of sound (273.1 K, 188.5 kPa): 108.94 ± 0.1 m/s
- speed of sound (273.1 K, 220.5 kPa): 107.96 ± 0.1 m/s
- speed of sound (273.1 K, 249.8 kPa): 106.97 ± 0.1 m/s
- speed of sound (273.1 K, 290.4 kPa): 105.61 ± 0.1 m/s
- speed of sound (278.2 K, 95.1 kPa): 112.94 ± 0.1 m/s
- speed of sound (278.2 K, 112.5 kPa): 112.44 ± 0.1 m/s
- speed of sound (278.2 K, 131.9 kPa): 111.89 ± 0.1 m/s
- speed of sound (278.2 K, 157.6 kPa): 111.15 ± 0.1 m/s
- speed of sound (278.2 K, 192.1 kPa): 110.13 ± 0.1 m/s
- speed of sound (278.2 K, 224.8 kPa): 109.21 ± 0.1 m/s
- speed of sound (278.2 K, 255 kPa): 108.24 ± 0.1 m/s
- speed of sound (278.2 K, 296.7 kPa): 106.96 ± 0.1 m/s
- speed of sound (283.2 K, 96.7 kPa): 114.02 ± 0.09 m/s
- speed of sound (283.2 K, 114.4 kPa): 113.54 ± 0.09 m/s
- speed of sound (283.2 K, 134 kPa): 113.01 ± 0.1 m/s
- speed of sound (283.2 K, 160.5 kPa): 112.31 ± 0.1 m/s
- speed of sound (283.2 K, 195.7 kPa): 111.31 ± 0.1 m/s
- speed of sound (283.2 K, 229.1 kPa): 110.42 ± 0.1 m/s
- speed of sound (283.2 K, 260.1 kPa): 109.49 ± 0.1 m/s
- speed of sound (283.2 K, 303 kPa): 108.25 ± 0.1 m/s
- speed of sound (288.3 K, 98.2 kPa): 115.1 ± 0.09 m/s
- speed of sound (288.3 K, 116.5 kPa): 114.63 ± 0.09 m/s
- speed of sound (288.3 K, 136.2 kPa): 114.12 ± 0.09 m/s
- speed of sound (288.3 K, 163.5 kPa): 113.43 ± 0.1 m/s
- speed of sound (288.3 K, 199.4 kPa): 112.48 ± 0.1 m/s
- speed of sound (288.3 K, 233.4 kPa): 111.61 ± 0.1 m/s
- speed of sound (288.3 K, 265.3 kPa): 110.72 ± 0.1 m/s
- speed of sound (288.3 K, 309.2 kPa): 109.53 ± 0.1 m/s
- speed of sound (293.3 K, 100.1 kPa): 116.16 ± 0.09 m/s
- speed of sound (293.3 K, 118.3 kPa): 115.7 ± 0.09 m/s
- speed of sound (293.3 K, 118.5 kPa): 115.72 ± 0.09 m/s
- speed of sound (293.3 K, 138.4 kPa): 115.2 ± 0.09 m/s
- speed of sound (293.3 K, 138.6 kPa): 115.22 ± 0.09 m/s
- speed of sound (293.3 K, 166.2 kPa): 114.54 ± 0.09 m/s
- speed of sound (293.3 K, 166.5 kPa): 114.55 ± 0.09 m/s
- speed of sound (293.3 K, 203 kPa): 113.61 ± 0.1 m/s
- speed of sound (293.3 K, 203.4 kPa): 113.63 ± 0.09 m/s
- speed of sound (293.3 K, 237.8 kPa): 112.79 ± 0.1 m/s
- speed of sound (293.3 K, 270.3 kPa): 111.92 ± 0.09 m/s
- speed of sound (293.3 K, 271.3 kPa): 111.92 ± 0.09 m/s
- speed of sound (293.3 K, 315.4 kPa): 110.77 ± 0.1 m/s
- speed of sound (298.4 K, 101.4 kPa): 117.22 ± 0.09 m/s
- speed of sound (298.4 K, 120.3 kPa): 116.79 ± 0.09 m/s
- speed of sound (298.4 K, 140.7 kPa): 116.3 ± 0.09 m/s
- speed of sound (298.4 K, 169.3 kPa): 115.65 ± 0.09 m/s
- speed of sound (298.4 K, 206.9 kPa): 114.77 ± 0.09 m/s
- speed of sound (298.4 K, 242.3 kPa): 113.97 ± 0.1 m/s
- speed of sound (298.4 K, 275.6 kPa): 113.13 ± 0.1 m/s
- speed of sound (298.4 K, 321.7 kPa): 112.02 ± 0.1 m/s
- speed of sound (303.4 K, 102.9 kPa): 118.27 ± 0.09 m/s
- speed of sound (303.4 K, 122.2 kPa): 117.85 ± 0.09 m/s
- speed of sound (303.4 K, 143.1 kPa): 117.38 ± 0.09 m/s
- speed of sound (303.4 K, 172.2 kPa): 116.75 ± 0.09 m/s
- speed of sound (303.4 K, 210.6 kPa): 115.9 ± 0.09 m/s
- speed of sound (303.4 K, 246.6 kPa): 115.1 ± 0.09 m/s
- speed of sound (303.4 K, 280.7 kPa): 114.31 ± 0.1 m/s
- speed of sound (303.4 K, 327.8 kPa): 113.24 ± 0.1 m/s
- speed of sound (308.5 K, 104.4 kPa): 119.31 ± 0.09 m/s
- speed of sound (308.5 K, 124.1 kPa): 118.88 ± 0.09 m/s
- speed of sound (308.5 K, 145.4 kPa): 118.44 ± 0.09 m/s
- speed of sound (308.5 K, 175.2 kPa): 117.83 ± 0.09 m/s
- speed of sound (308.5 K, 214.1 kPa): 117 ± 0.09 m/s
- speed of sound (308.5 K, 251 kPa): 116.24 ± 0.09 m/s
- speed of sound (308.5 K, 285.8 kPa): 115.47 ± 0.09 m/s
- speed of sound (308.5 K, 334 kPa): 114.43 ± 0.1 m/s
- speed of sound (313.5 K, 105.9 kPa): 120.35 ± 0.09 m/s
- speed of sound (313.5 K, 126 kPa): 119.93 ± 0.09 m/s
- speed of sound (313.5 K, 147.7 kPa): 119.48 ± 0.09 m/s
- speed of sound (313.5 K, 177.9 kPa): 118.9 ± 0.09 m/s
- speed of sound (313.5 K, 217.6 kPa): 118.09 ± 0.09 m/s
- speed of sound (313.5 K, 255.2 kPa): 117.36 ± 0.09 m/s
- speed of sound (313.5 K, 290.9 kPa): 116.61 ± 0.09 m/s
- speed of sound (313.5 K, 340 kPa): 115.6 ± 0.1 m/s
- speed of sound (318.5 K, 107.5 kPa): 121.35 ± 0.09 m/s
- speed of sound (318.5 K, 127.9 kPa): 120.96 ± 0.09 m/s
- speed of sound (318.5 K, 150.1 kPa): 120.53 ± 0.09 m/s
- speed of sound (318.5 K, 180.8 kPa): 119.96 ± 0.09 m/s
- speed of sound (318.5 K, 221.2 kPa): 119.17 ± 0.09 m/s
- speed of sound (318.5 K, 259.7 kPa): 118.47 ± 0.09 m/s
- speed of sound (318.5 K, 296 kPa): 117.74 ± 0.09 m/s
- speed of sound (318.5 K, 346.1 kPa): 116.75 ± 0.1 m/s
- speed of sound (323.5 K, 109.2 kPa): 122.36 ± 0.09 m/s
- speed of sound (323.5 K, 130 kPa): 121.97 ± 0.09 m/s
- speed of sound (323.5 K, 152.5 kPa): 121.55 ± 0.09 m/s
- speed of sound (323.5 K, 183.8 kPa): 121 ± 0.09 m/s
- speed of sound (323.5 K, 225 kPa): 120.25 ± 0.09 m/s
- speed of sound (323.5 K, 264.1 kPa): 119.56 ± 0.09 m/s
- speed of sound (323.5 K, 301.1 kPa): 118.85 ± 0.09 m/s
- speed of sound (323.5 K, 352.2 kPa): 117.91 ± 0.09 m/s
